Patent US20110105389A1 (priority 2009, published 2011)
Read-outs that look alike come from different tables or passages of the source.

Columns and labels:
[1] = biological target: CYP3A4 (Homo sapiens, UniProt P08684); experiment: Cytochrome P450 inhibition, Method B6 (two substrates); settings: read-out: IC50 CYP 3A4; Table 4b; midazolam used as substrate
[2] = biological target: CYP2D6 (Homo sapiens, UniProt P10635); experiment: Cytochrome P450 inhibition, Method B6; settings: read-out: IC50 CYP 2D6; Table 4b; dextromethorphan used as substrate
Sequence of CYP2D6 (P10635 whole entry): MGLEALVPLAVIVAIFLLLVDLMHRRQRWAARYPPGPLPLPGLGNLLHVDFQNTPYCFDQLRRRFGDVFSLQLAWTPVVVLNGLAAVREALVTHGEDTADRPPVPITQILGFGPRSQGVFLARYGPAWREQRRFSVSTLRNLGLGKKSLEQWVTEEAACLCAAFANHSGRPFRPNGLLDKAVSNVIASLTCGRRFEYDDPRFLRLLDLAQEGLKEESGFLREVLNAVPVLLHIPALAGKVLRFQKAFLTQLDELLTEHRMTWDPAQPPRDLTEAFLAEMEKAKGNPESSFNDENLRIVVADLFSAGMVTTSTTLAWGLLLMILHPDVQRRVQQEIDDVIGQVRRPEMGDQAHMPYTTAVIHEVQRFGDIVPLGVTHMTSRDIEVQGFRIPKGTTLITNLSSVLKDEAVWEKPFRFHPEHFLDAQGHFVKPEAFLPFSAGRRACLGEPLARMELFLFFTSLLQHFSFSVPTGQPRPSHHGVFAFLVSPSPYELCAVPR

[3] = biological target: T1, GHS-R1a receptor (HEK293 cells expressing GHS-R1a receptor) (Homo sapiens, UniProt Q92847); experiment: Fluorescence functional assay (ghrelin receptor), Method B2, agonist and antagonist mode; type: cell-based; settings: functional activity as an antagonist at the ghrelin receptor, Methods B2 and B3
T1 construct: host or cells: HEK293
T1 sequence (Q92847 whole entry): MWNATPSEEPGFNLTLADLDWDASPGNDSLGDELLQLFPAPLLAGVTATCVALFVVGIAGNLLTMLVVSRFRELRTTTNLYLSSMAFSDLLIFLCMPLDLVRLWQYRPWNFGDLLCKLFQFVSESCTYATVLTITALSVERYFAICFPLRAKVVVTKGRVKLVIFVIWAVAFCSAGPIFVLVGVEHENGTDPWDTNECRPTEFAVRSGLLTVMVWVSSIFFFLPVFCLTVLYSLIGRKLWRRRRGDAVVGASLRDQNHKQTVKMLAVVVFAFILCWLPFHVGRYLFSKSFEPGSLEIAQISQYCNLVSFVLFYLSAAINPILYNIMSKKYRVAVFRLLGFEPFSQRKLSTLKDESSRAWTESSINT
Outline: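 Calcium flux read by ImageTrak epifluorescence in HEK293 cells stably expressing GHS-R1a, loaded 1 h at 37 °C with Calcium-3 dye; buffer HBSS/20 mM Hepes, pH 7.4, with probenecid and BSA. Agonists injected after 10 s baseline, read 50 s more; antagonists 3 min. Sigmoidal fits gave EC50 or IC50.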

[4] = biological target: T2, human ghrelin receptor (GRLN, growth hormone secretagogue receptor, hGHS-R1a) (Homo sapiens, UniProt Q92847); experiment: Competitive radioligand binding assay (ghrelin receptor), Method B1; settings: Ghrelin receptor binding activity, Method B1
T2 construct: purchased PerkinElmer BioSignal #RBHGHSM, lot#1887; host or cells: HEK-293 cells, stably transfected (membranes)
T2 sequence (Q92847 whole entry): as above
Outline: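 Filtration competition format: bound radioactivity counted after GF/C harvesting and cold 50 mM Tris-HCl washes. Incubation lasted 30 min at room temperature in Hepes pH 7.4 buffer with Ca2+, Mg2+, EDTA and 0.4% BSA (DMSO ≤0.1% final); values from variable-slope non-linear regression.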

[5] = test system: rat stomach fundus strips; experiment: Ex-vivo potency evaluation on the rat stomach fundus (inhibition of ghrelin-induced contractility), Method B10; settings: EFS
Description: B10. Ex-vivo Potency Evaluation on the Rat Stomach Fundus
Fundus strips (approximately 0.4×1 cm) were cut from the stomach of adult male Wistar rats parallel to the circular muscle fibers. They were placed between two platinum ring electrodes, 1 cm apart (Radnoti, ADlnstruments, USA) in 10 ml tissue baths containing Krebs solution bubbled with 5% CO2 in O2 and maintained at 37° C. Tissues were suspended under 1.5 g resting tension. Changes of tension were measured isometrically with force transducers and recorded with a PowerLab 8/30 data acquisition system (ADlnstruments, USA). Tissues were allowed to equilibrate for 60 min during which time bath solutions were changed every 15 min.
EFS was achieved by applying 0.5 ms pulses, 5 Hz frequency, at a maximally effective voltage of 70 V. EFS was applied for 30 sec at 3 min intervals for a 30 min initial period. This initial period was separated by a […] interval with wash out of the bath solution. Then, a second period of stimulation was started. […] Responses to the agents were measured and expressed as % of the mean of three or four pre-drug responses to EFS. All compounds were dissolved at 1 mM in distilled water or MeOH, as stock solutions.
IC50 values for the inhibition of ghrelin-induced contractility by representative compounds of the invention are presented in Table 7.

[6] = Metabolic stability in human liver microsomes, Method B8; type: in vitro ADME; settings: human liver microsomes 0.8 mg/mL, 5 μM compound, 37° C.
Outline: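 Pooled human liver microsomes (15 mixed-sex donors) at 0.8 mg/mL in 100 mM potassium phosphate, pH 7.4, with 1.5 mM NADPH and 8 mM MgCl2. Compounds tested in duplicate at a single 5 μM (0.05% DMSO), incubated at 37° C.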

[7] = cited from earlier work

Sequence of CYP3A4 (P08684 whole entry): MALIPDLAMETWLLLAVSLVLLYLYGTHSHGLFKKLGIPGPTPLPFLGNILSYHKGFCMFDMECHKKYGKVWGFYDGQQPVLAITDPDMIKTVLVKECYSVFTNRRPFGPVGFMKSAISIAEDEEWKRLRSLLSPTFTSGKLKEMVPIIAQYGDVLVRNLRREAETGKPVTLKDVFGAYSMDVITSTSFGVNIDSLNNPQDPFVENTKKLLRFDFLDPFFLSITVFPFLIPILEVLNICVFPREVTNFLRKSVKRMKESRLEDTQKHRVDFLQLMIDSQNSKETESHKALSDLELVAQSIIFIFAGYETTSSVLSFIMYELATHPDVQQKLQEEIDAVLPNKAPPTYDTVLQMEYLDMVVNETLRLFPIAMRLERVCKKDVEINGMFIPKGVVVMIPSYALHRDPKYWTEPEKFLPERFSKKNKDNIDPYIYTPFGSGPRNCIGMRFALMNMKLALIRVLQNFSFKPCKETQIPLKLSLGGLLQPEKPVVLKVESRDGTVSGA

CCC(C)[C@@H]1NCCOc2ccccc2/C=C/CNC(=O)[C@@H](Cc2ccccc2)NC(=O)[C@H](C(C)O)N(C)C1=O (some centres unmarked) [Compound 1318]
IC50 [1]: 3900 nM | IC50 [2]: > 5000 nM | Antagonist Activity [3]: C (C = 10-100 nM) | IC50 [4]: 10 to 100 nM | Ki [4]: 1 to 10 nM

COC(C)[C@@H]1NCCOc2ccccc2/C=C/CNC(=O)[C@@H](Cc2ccccc2)NC(=O)[C@H](C(C)O)N(C)C1=O (some centres unmarked) [Compound 1324]
IC50 [1]: > 5000 nM | IC50 [2]: > 5000 nM | Antagonist Activity [3]: D (D = 100-500 nM) | Ki [4]: 10 to 100 nM

CCC(C)[C@@H]1NCCOc2ccccc2/C=C/CNC(=O)[C@@H](Cc2ccccc2F)NC(=O)[C@H](C(C)O)N(C)C1=O (some centres unmarked) [Compound 1325]
IC50 [1]: > 3100 nM | IC50 [2]: > 5000 nM | Antagonist Activity [3]: C (C = 10-100 nM) | IC50 [4]: 10 to 100 nM | Ki [4]: 10 to 100 nM | IC50 [5]: 29 nM

CCC(C)[C@@H]1NCCOc2ccccc2CC[C@@H](C)NC(=O)[C@@H](Cc2ccccc2)NC(=O)[C@H](C(C)O)N(C)C1=O (some centres unmarked) [Compound 1358]
IC50 [1]: 1600 nM | IC50 [2]: > 20000 nM | Antagonist Activity [3]: C (C = 10-100 nM)

CC(C)[C@@H]1NCCOc2ccccc2CC[C@@H](C)NC(=O)[C@@H](Cc2c[nH]c3ccccc23)NC(=O)[C@H](C(C)O)N(C)C1=O (some centres unmarked) [Compound 1375]
IC50 [1]: 8800 nM | IC50 [2]: > 20000 nM | Antagonist Activity [3]: B (B = 1-10 nM) | HLM, metabolic stability in human liver microsomes [6]: 58.4 μL/min/mg protein

CC(C)[C@@H]1NCCOc2ccccc2CC[C@@H](C)NC(=O)[C@@H](Cc2ccsc2)NC(=O)[C@H](C(C)O)N(C)C1=O (some centres unmarked) [Compound 1399]
IC50 [1]: 2300 nM | IC50 [2]: > 20000 nM | Antagonist Activity [3]: B (B = 1-10 nM)

CC(C)[C@@H]1NCCOc2ccccc2CC[C@@H](C)NC(=O)[C@@H](Cc2ccc3ccccc3n2)NC(=O)[C@H](C(C)O)N(C)C1=O (some centres unmarked) [Compound 1413]
IC50 [1]: 1000 nM | IC50 [2]: 14700 nM | Antagonist Activity [3]: B (B = 1-10 nM)

COc1ccccc1C[C@H]1NC(=O)[C@H](C(C)O)N(C)C(=O)[C@H](C(C)C)NCCOc2ccccc2CC[C@@H](C)NC1=O (some centres unmarked) [Compound 1418]
IC50 [1]: 900 nM | IC50 [2]: 14500 nM | Antagonist Activity [3]: B (B = 1-10 nM) | HLM, metabolic stability in human liver microsomes [6]: 32.2 μL/min/mg protein

CC(C)[C@@H]1NCCOc2ccccc2/C=C/CNC(=O)[C@@H](Cc2cccc(Cl)c2)NC(=O)[C@H](C(C)O)N(C)C1=O (some centres unmarked) [Compound 1432]
IC50 [1]: 1200 nM | IC50 [2]: 5200 nM | Antagonist Activity [3]: B (B = 1-10 nM) | HLM, metabolic stability in human liver microsomes [6]: 25.1 μL/min/mg protein

C=C[C@H]1C[N@@]2CC[C@H]1C[C@H]2[C@H](O)c1ccnc2ccc(OC)cc12 [quinine]
known plasma protein binding value ([7]; reference controls): ~35%

CC(=O)CC(c1ccccc1)c1c(O)c2ccccc2oc1=O (centres unmarked) [warfarin]
known plasma protein binding value ([7]; plasma): ~98%
